Assay results as given in US20110028391A1, “Use of GLP-1 Peptides” (Novo Nordisk A/S, priority 1996, published 2011).
Where two headings read alike, the source gives them in different places. No end group written: not given here.

How the values were obtained:
rats = conditions: cited from earlier work
Mice [1] = experiment: Appetite suppression in mice: Complan formula milk consumption after subcutaneous injection (Example 4); type: in vivo; conditions: 30 min after injection, p<0.001
Mice [2] = experiment: Appetite suppression in mice: 20% sucrose consumption, tested immediately after ip injection (Example 2); type: in vivo; conditions: 85 micrograms (equivalent to 3.4 mg/kg) in sterile saline, 10 minute test immediately after injection, versus vehicle control, p-value 0.002
Experimental: Mice were deprived of their normal food for two days and given free access to a 20% sucrose solution on the first day of food deprivation. After the two day food deprivation period, the mice were injected intraperitoneally with 0.5 ml of a solution containing the test substance. Immediately after injection, individual mice were placed in one of eight 15 cm square test boxes with a stainless steel grid floor and a glass drinking tube which projected into the box. […] Consumption of the sucrose solution was measured over a 10 minute period by electronically recording the total amount of contact with the sucrose solution during the test session. The degree of appetite suppression produced by a given test substance was determined by statistical comparison of the mean duration of sucrose consumption by control (vehicle treated) mice with that of mice treated with a test substance. The degree of appetite suppression in a treated group of mice was expressed as percent difference between the test and control group's response duration means. […]

Healthy human volunteers = experiment: Double-blind crossover trial of iv infusion: food intake, satiety, hunger, fullness and appetite in normal human subjects; type: in vivo; conditions: iv infusion 50 pmol/(kg·h)
From the text: Healthy human volunteers (20 subjects) were in a double-blind crossover trial given an iv infusion of 50 pmol/(kg·h) of GLP-1(7-36)amide or saline on separate, but otherwise identical experimental days. The infusion was started at 9.00 and lasted until 15.00. At 9.45 the subjects received a fixed amount of breakfast and at 14.15 they had lunch of an identical composition but ad libitum. The subjects rated their feeling of satiety, hunger, fullness and appetite on a visual analogue scale every half hour.

[3] = 9.00 to 15.00, 20 subjects, rated every half hour, p=0.007

Substance: GLP-1(1-36)amide (HDEFERHAEGTFTSDVSSYLEGQAAKEFIAWLVKGR-NH2; UniProt P01275 92-127, looked up, fragment) [GLP-1 fragment 1-36, C-terminal amide]
- Effect on food intake (rats; Tang-Christensen et al. 1996, route not stated): no effect

Substance: GLP-1(7-36)amide
- Suppression of feeding (Complan consumption) (Mice [1]; 1 mg/kg): 45%
- Maximum effect, suppression of feeding (Complan consumption) (Mice [1]; 20 mg/kg (highest dose tested)): 60%
- Suppression of sucrose consumption (Mice [2]): 60%

Substance: GLP-1: proglucagon fragment 72-108 per b6; as named in the cited rat studies (b7); in b63 it is shorthand for GLP-1(7-36)amide
- Effect on food intake (rats; administered intracerebroventricularly, Tang-Christensen et al. 1996): profound effect
- Effect on food intake (rats; administered intracerebroventricularly, Turton et al. 1996): profound effect
- Effect on food intake (rats; peripheral administration, Turton et al. 1996): inactive
- Effect on food intake (rats; peripherally administered, Tang-Christensen et al. 1996): no significant effect
- Satiety (visual analogue scale) versus saline (Healthy human volunteers; 9.00 to 15.00, 20 subjects, rated every half hour, p=0.006): GLP-1>Saline
- Appetite (visual analogue scale) versus saline (Healthy human volunteers; [3]): GLP-1<Saline
- Hunger (visual analogue scale) versus saline (Healthy human volunteers; [3]): GLP-1<Saline
- Fullness (visual analogue scale) versus saline (Healthy human volunteers; 9.00 to 15.00, 20 subjects, rated every half hour, p=0.010): GLP-1>Saline
- Energy intake (Healthy human volunteers; ad libitum lunch, saline 4.3 MJ, p-value 0.009): 3.9 mJ
